Like-named read-outs stand apart in the source and are kept apart here.
Key:
AaegOR9 [1] = molecular target: T1, AaegOR9 (Aedes aegypti, UniProt Q177X5); design: method as in Bohbot et al., 2011; conditions: ref Bohbot et al., 2011; cited from earlier work
OR02-ORco [2] = test system: OR02-ORco; design: method as in Pelletier et al., 2010; conditions: Culex quinquefasciatus OR02-ORco; kairomone receptor; ref Pelletier et al., 2010; cited from earlier work
OR02-ORco [3] = test system: OR02-ORco; design: method as in Bohbot et al., 2011; conditions: Aedes aegypti OR02-ORco; kairomone receptor; ref Bohbot et al., 2011; cited from earlier work
AaegOR9 [4] = molecular target: T1, AaegOR9; assay: Two-electrode voltage clamp of Xenopus oocytes expressing AaegOR9-ORco (tuning curve and concentration-response); assay type: cell-based
Protocol: The methodologies and protocols have been described in details elsewhere (Bohbot and Dickens, [2009]). AaegOr9 and Aaeg-ORco cRNAs (Bohbot et al., [2011]) were synthesized from linearized pSP64DV expression vectors using the mMESSAGE mMACHINE® SP6 kit (Life Technologies). Stage V-VII oocytes were harvested from Xenopus laevis females, mechanically separated, treated with collagenase (8 mg/mL, 30 min, 18°C) and rinsed in washing solution (96 mM NaCl, 2 mM KCl, 5 mM MgCl2 and 5 mM HEPES, pH 7.6). Oocytes were microinjected with 27.6 ng AaegOr9 and AaegORco cRNAs, incubated at 18°C for 3–4 days in ND96 solution (96 mM NaCl, 2 mM KCl, 5 mM MgCl2, 0.8 mM CaCl2 and 5 mM HEPES, pH 7.6), supplemented with 5% dialyzed horse serum, 50 μg/mL tetracycline, 100 μg/mL streptomycin and 550 μg/mL sodium pyruvate. Whole-cell currents were recorded using the two-microelectrode voltage-clamp technique. During recording sessions, the holding potential was maintained at −80 mV using an OC-725C oocyte clamp (Warner Instruments, LLC, Hamden, CT, USA). Oocytes placed in a RC-3Z oocyte recording chamber (Warner Instruments, LLC, Hamden, CT, USA) were exposed to odorants for 8 s. Current was allowed to return to baseline between odorant applications. Data acquisition and concentration-response analyses were carried out with a Digidata 1550A and the pCLAMP10 software (Molecular Devices, Sunnyvale, CA, USA), and analyzed using GraphPad Prism 7 (GraphPad Software Inc., La Jolla, CA, USA). Stock concentration of odorants (10^−2 M) were dissolved in ringer solution containing 2% dimethyl sulfoxide (DMSO) in order to solubilize the hydrophobic indolic compounds.
The response profile was established using multiple sessions, each including six compounds at a time and indole as an internal reference. […] All the response values were normalized to the indole reference in each recording session (Supplementary Figure 1).
For the establishment of the concentration-response curves, oocytes were exposed to increasing concentrations of indole, skatole and indole-3-carboxaldehyde (I3C; Supplementary Figure 2). Quantitative characterization of OR sensitivity was estimated using the averaged effective concentration at 50% of the maximal response (EC50) over the sample population. The data to establish the concentration response curve and EC50 of AaegOR10-skatole was extracted from a previous study (Bohbot and Dickens, [2012]).
We also included indole and skatole as references (Bohbot et al., [2011]). The screen was carried out using a low odorant concentration (500 nM) in order to mitigate the caveats associated with high ligand concentrations, including receptor adaptation, antagonist effects and technical artifacts such as broad molecular receptive ranges (Bohbot and Pitts, [2015]).

OR02-ORco [5] = test system: OR02-ORco; design: method as in Wang et al., 2010; conditions: Anopheles gambiae OR02-ORco; kairomone receptor; ref Wang et al., 2010; cited from earlier work

T1 sequence (Q178U6 whole entry): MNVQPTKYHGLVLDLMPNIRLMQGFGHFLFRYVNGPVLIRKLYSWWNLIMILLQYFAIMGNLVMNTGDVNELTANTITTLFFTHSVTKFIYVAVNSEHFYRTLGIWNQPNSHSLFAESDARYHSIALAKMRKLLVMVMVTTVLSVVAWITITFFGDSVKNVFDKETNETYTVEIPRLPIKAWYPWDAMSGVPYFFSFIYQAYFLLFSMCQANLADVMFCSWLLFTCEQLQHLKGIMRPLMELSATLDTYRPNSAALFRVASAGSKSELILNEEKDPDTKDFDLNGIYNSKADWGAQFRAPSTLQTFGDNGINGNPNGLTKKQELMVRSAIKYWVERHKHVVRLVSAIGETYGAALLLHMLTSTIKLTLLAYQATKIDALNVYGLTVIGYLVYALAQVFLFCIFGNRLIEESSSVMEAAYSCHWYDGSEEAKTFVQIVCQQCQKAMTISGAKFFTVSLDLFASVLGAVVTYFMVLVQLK
T1 sequence (Q177X5 entry or part of it): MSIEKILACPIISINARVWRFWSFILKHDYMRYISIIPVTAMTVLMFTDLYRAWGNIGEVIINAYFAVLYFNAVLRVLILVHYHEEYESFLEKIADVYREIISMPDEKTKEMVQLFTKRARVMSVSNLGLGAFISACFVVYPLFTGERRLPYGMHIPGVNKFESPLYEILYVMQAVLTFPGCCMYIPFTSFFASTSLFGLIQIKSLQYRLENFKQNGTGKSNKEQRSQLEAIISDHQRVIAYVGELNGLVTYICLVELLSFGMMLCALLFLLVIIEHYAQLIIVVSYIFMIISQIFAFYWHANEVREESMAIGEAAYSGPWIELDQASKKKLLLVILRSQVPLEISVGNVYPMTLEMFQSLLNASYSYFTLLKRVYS

c1ccc2[nH]ccc2c1 [indole, 1H-indole]
Concentration range activating AaegOR9 (AaegOR9 [1]): low micromolar | EC50 (OR02-ORco [2]): 280 nM | EC50 (OR02-ORco [3]): 370 nM | Ligand potency in AaegOR9 tuning curve (in words) (AaegOR9 [4]; 500 nM odorant, panel of 31 indole derivatives): next most potent ligands | Rank according to potency (No.) (AaegOR9 [4]; AaegOR9 tuning curve of Figure 1, 500 nM, 1 = most potent of 31): 3 | EC50 (OR02-ORco [5]): 167 nM

Reference: paper PMC6353850, “Supersensitive Odorant Receptor Underscores Pleiotropic Roles of Indoles in Mosquito Ecology” (Frontiers in Cellular Neuroscience, 2019)
